How the values were obtained:
[1] = system: progressive BM with CDK pathway alterations; conditions: patients with progressive BM with CDK pathway alterations ref 21; cited from earlier work
[2] = system: SW1573-FmC intracranial tumors; assay: Pharmacodynamic immunohistochemistry of brain tumors; type: in vivo, mice; conditions: SW1573-FmC xenograft, 3 days treatment
Description: Formalin-fixed paraffin-embedded Sects. (7-μm thickness) were subjected to immunohistochemistry according to the methods described previously. Primary antibodies used included those directed at: p-ERK (CST), p-Rb (CST), Ki67 (Dako, MIB1) and Cleaved caspase 3 (CST, 9661). Immuno-positive cells and negative cells within tumor tissues were counted and the fraction of positive cells determined.

[3] = set-up: method as in PMID 31658955; conditions: cited from earlier work
human p-gp = human p-gp ref 6, 34; cited from earlier work
human CYP3A4 = conditions: cited from earlier work
SW1573 cells [4] = assay: CyQUANT cell proliferation assay; type: cell-based; conditions: Homo sapiens, SW1573, 120 h
Protocol: (§1) Human NSCLC cell lines, SW1573 and H2122 cells, were obtained from the American Type Culture Collection. Both cell lines carry a KRAS G12C mutation and CDKN2A homozygous deletion. The cell lines were authenticated by short tandem fingerprinting in 2022 and periodically tested to be Mycoplasma-free. H2122 cells were cultured in RPMI-1640 supplemented with 10% fetal bovine serum. SW1573 cells were maintained in DMEM supplemented with 5% FBS. Both cell lines were cultured at 37 °C in a 5% CO2-humidified atmosphere and passaged when they reached 80–90% confluence. Cells were transduced with a lentivirus vector carrying cDNA coding for firefly luciferase and mCherry to generate SW1573-FmC and H2122-FmC for in vivo studies.

H2122 cells [5] = assay: CyQUANT cell proliferation assay; type: cell-based, human; conditions: 120 h drug exposure
Protocol: as §1

H2122-FmC cells = assay: CyQUANT cell proliferation assay, FmC-transduced cells; type: cell-based; conditions: Homo sapiens, 120h drug exposure
Protocol: as §1, with “studies. […]” for “studies.”
(§2) cell viability of firefly-luciferase and mCherry (FmC)-transduced NSCLC cells.
(§3) A, Image representing cell line transduction procedures, involving overnight exposure with a lentivirus vector expressing Firefly luciferase and mCherry. B, C, CellTiter-Glo and CyQUANT […]
(§4) Highest Single Agent model analysis in SW1573-FmC (D) and H2122-FmC (E) cell lines (96h […]
(§5) HSA synergy and antagonism

SW1573-FmC cells = assay: as above; type: cell-based; conditions: Homo sapiens, 120h drug exposure
Protocol: as §1, with “studies. […]” for “studies.”
as §2, §3, §4, §5

[6] = system: phospho-ERK (p-ERK) in SW1573 cells; assay: Western blot of phospho-ERK; type: cell-based, human; conditions: 48 h, 1,000 nM adagrasib and/or 1,000 nM abemaciclib
[7] = system: p-Rb (Ser807/811) in H2122 cells; assay: Western blot of phospho-Rb; type: cell-based, human; conditions: 24 h exposure
Protocol: (§6) Cells and tissues were lysed in RIPA lysis buffer (Pierce). The protein concentration was measured using Bradford assay (BioRad). Protein lysates were separated by Mini-PROTEAN TGX gel electrophoresis (BioRad) and subsequently transferred to PVDF membranes (BioRad) for immunoblotting analysis. The membrane was blocked with 5% non-fat skim milk in Tris-buffered saline with tween. Incubation in diluted primary antibodies was conducted overnight and diluted horseradish peroxidase-conjugated secondary antibodies were subsequently applied. Immunoreactive bands were detected using ECL substrate reagent (BioRad), and the membrane was developed using a ChemiDoc XRS + system (BioRad). Primary antibodies used were against: phospho-ERK (Cell Signaling Technology (CST), 4370), ERK (CST, 9102), phospho-Rb (Ser807/811, CST, 8516), β-actin (CST, 3700), and vinculin (Millipore Sigma, 05–386).

[8] = system: p-Rb (Ser807/811) in SW1573 cells; assay: Western blot of phospho-Rb; type: cell-based, human; conditions: 24 h exposure
Protocol: as §6

H2122 cells [9] = assay: Flow cytometry cell cycle analysis; type: cell-based, human; conditions: 24 h drug exposure
Protocol: (§7) Cells were harvested, washed with PBS, and fixed in 2% paraformaldehyde. After the samples were prepared for analysis, fixed cells were resuspended in media and incubated with Vybrant DyeCycle Violet stain (ThermoFisher) for 30 min at 37 °C while protected from light. Flow cytometry was conducted using LSR II Cytometer (BD Biosciences) and analysis was done with FlowJo software and the Dean Jett-Fox algorithm.

SW1573 cells [10] = assay: Flow cytometry cell cycle analysis; type: cell-based, human; conditions: 24 h drug exposure
Protocol: as §7

[11] = system: caspase 3/7 in SW1573 cells; assay: Caspase 3/7-Glo cell death assay; type: cell-based, human; conditions: 48 h, 1,000 nM adagrasib, 1,000 nM abemaciclib, alone or combined
Protocol: (§8) For the caspase 3/7 assay, differences in luminescence signals (from control) were determined using One-Way ANOVA. Differences in BLI radiance were tested for statistical significance using the One-Way ANOVA comparison. Statistical comparisons between two groups were considered significant when the adjusted P value was below 0.05 (P < 0.05). Kaplan–Meier analysis and log-rank test were used for the analysis of animal overall survival, comparing the groups.

[12] = system: H2122-FmC intracranial tumors; assay: Intracranial xenograft efficacy study (BLI, survival, body weight); type: in vivo, female nude (athymic) mice; conditions: H2122-FmC model
Protocol: (§9) All the animal studies were conducted in compliance with all applicable regulations and guidelines of the Institutional Animal Care and Use Committee. Six-to-eight-week-old female nude (athymic) mice were obtained from Charles River Laboratory and maintained under pathogen-free conditions, with food and water provided ad libitum. Mice were implanted intracranially with SW1573-FmC (2 × 10^5 in 2 μL serum-free media) or H2122-FmC cells (1.5 × 10^5 in 2 μL serum-free media) in the right striatum region under general anesthesia using stereotactic procedures as previously described. Animal health was monitored daily.
(§10) Animals were humanely euthanized when > 20% body weight loss or > 15% body weight loss plus neurological signs was noted. Survival data were collected for each group and analyzed using the Kaplan–Meier method. Survival duration by group was tested for statistical significance using the Gehan-Breslow-Wilcoxon test with False Discovery Rate correction. Statistical comparisons were considered significant when the adjusted P value was below 0.05 (P < 0.05).
(§11) Animals were injected intraperitoneally with luciferin (150 mg/kg, 0.01 mL/g) based on body weight and anesthetized using 1–2% isoflurane in oxygen at 1–2 L/minute. Images were acquired beginning at 7 min after luciferin injection for three time points (7, 15, and 30 min). Region of interest (ROI) analysis was completed on BLI images using AURA software (Spectral Instrument Imaging). BLI images were generated by overlaying BLI signals for each animal onto their respective white-light images for anatomic reference. Brain ROIs were generated using a fixed area circle and were placed based on the BLI signal in the relevant area, using the photographic anatomical reference images. BLI signals in images were scaled in units of radiance (photons per second per […] per steradian). Prism 9 software (Graph Pad) was used to generate relevant plots based on the in vivo quantification.
as §8

[13] = system: SW1573-FmC intracranial tumors; assay: as above; type: in vivo, female nude (athymic) mice; conditions: SW1573-FmC model
Protocol: as §9, §10, §11, §8

[14] = clinically ref 23; cited from earlier work
[15] = Pharmacokinetic study, plasma and brain concentration by LC-MS/MS; conditions: H2122-FmC and SW1573-FmC tumor-bearing mice, oral adagrasib 75 mg/kg BID or abemaciclib 50 mg/kg QD for three days, 1 h after last dose

CC(=O)c1c(C)c2cnc(Nc3ccc(N4CCNCC4)cn3)nc2n(C2CCCC2)c1=O [palbociclib]
Intracranial activity in patients [1]: demonstrated intracranial activity

C=C(F)C(=O)N1CCN(c2nc(OC[C@@H]3CCCN3C)nc3c2CCN(c2cccc4cccc(Cl)c24)C3)C[C@@H]1CC#N [adagrasib]
Cleaved caspase 3 (C-Cas3) positivity in tumor (IHC) [2]: trend of increased positivity
p-ERK-positive cells in tumor (IHC) [2]: decrease of p-ERK-positive cells
p-Rb-positive cells in tumor (IHC) [2]: decreased p-Rb-positive cells
Half-life [3]: 24 h
P-gp-mediated efflux interaction (human p-gp): substrates and inhibitors of human p-gp-mediated efflux
CYP3A4 interaction (human CYP3A4): time-dependent inhibition of human CYP3A4

CCN1CCN(Cc2ccc(Nc3ncc(F)c(-c4cc(F)c5nc(C)n(C(C)C)c5c4)n3)nc2)CC1 [abemaciclib]
IC50 (SW1573 cells [4]; 120-h drug exposure): 1000 nM
IC50 (SW1573 cells [4]; 120 h drug exposure): 833 nM
IC50 (H2122 cells [5]): 626 nM
IC50 (H2122 cells [5]; Homo sapiens, NCI-H2122, 120 h): 600 nM
IC50 (H2122-FmC cells): 518 nM
IC50 (SW1573-FmC cells): 1000 nM
Effect on p-ERK (immunoblot, co-treatment experiment) [6]: modestly suppressed p-ERK
Effect on p-Rb (Ser807 and Ser811, immunoblot) [7]: dose-dependent inhibition of p-Rb
Effect on p-Rb (Ser807 and Ser811, immunoblot) [8]: dose-dependent inhibition of p-Rb
Effect on cell cycle phase fractions (H2122 cells [9]): significantly increased the fraction of G1 phase and decreased the fractions of S and G2 phases
Effect on cell cycle phase fractions (SW1573 cells [10]): significantly increased the fraction of G1 phase and decreased the fractions of S and G2 phases
Caspase 3/7 activity [11]: did not significantly provoke activation of caspase 3/7
Animal survival (Kaplan–Meier) vs control ([12]; 5-week treatment, adagrasib 75 mg/kg BID, abemaciclib 50 mg/kg QD): no survival efficacy
BLI post-treatment signals vs control ([12]; day 40, no statistical significance): signals comparable to the control
Overall survival (Kaplan–Meier) ([13]; 5-week treatment, animals with pre-treatment spinal disease excluded): did not show survival benefit
Overall survival (Kaplan–Meier), all animals included ([13]; comparison of the groups, including animals with spinal disease): No statistical significance
BLI signal intensity (radiance) vs vehicle ([13]; day 40, adagrasib 75 mg/kg BID, abemaciclib 50 mg/kg QD, animals with pre-treatment spinal disease excluded): lower average BLI compared to the vehicle, without statistical significance
Cleaved caspase 3 (C-Cas3) positivity in tumor (IHC) [2]: very few C-Cas3 positive cells
p-ERK-positive cells in tumor (IHC) [2]: decreased p-ERK-positive cells
p-Rb-positive cells in tumor (IHC) [2]: modestly decreased P-Rb immunopositivity
P-gp-mediated efflux interaction (human p-gp): substrates and inhibitors of human p-gp-mediated efflux
CSF versus plasma concentrations [14]: comparable concentrations in the CSF and plasma
CYP3A4 interaction (human CYP3A4): substrate of CYP3A4
Concentration in brain [15]: 200 to 300 ng/mL
Concentration in plasma [15]: 290 to 400 ng/mL

From publication PMC12046717 (Acta Neuropathologica Communications, 2025)
